How the values were obtained:
Format in all cases: biochemical
[1] = target: T1, cathepsin B (Homo sapiens, UniProt P07858); test: Cathepsin B inhibitor kinetic characterization, fluorogenic assay with Z-Phe-Arg-AMC; settings: cathepsin B
T1 construct: purchased R&D Systems 953-CY-010
Description: Inhibitor kinetic characterization using fluorogenic assays for cathepsin B activity. Kinetic analyses of IC50, K1, kobs, and kinact/K1 values for Z-Arg-Lys-AOMK and Z-Glu-Lys-AOMK inhibition of cathepsin B were conducted by fluorogenic proteolytic assays consisting of 40 μM Z-Phe-Arg-AMC, 40 mM citrate phosphate at pH 7.2 or pH 4.6, 1 mM EDTA, 100 mM NaCl, 5 mM DTT, and 0.01% Tween 20; assays were performed at room temperature (22-27° C.) in quadruplicate. Inhibitor and substrate were combined in the reaction well, and the assay was started upon addition of cathepsin B (0.04 ng/μL). The inhibitor concentration ranged from 5.5 μM to 1.1 nM (1.5-fold serial dilution). A vehicle control assay contained 2% DMSO instead of inhibitor. Enzyme velocity (RFU/sec) was measured during a […] incubation period as relative fluorescent units per sec (RFU/s), calculated using the highest slope recorded for 10 consecutive readings taken at 46 sec intervals (thus, activity is calculated over a total of 460 sec). Prism software was used to analyze enzyme activity data in kinetic studies. IC50 values were calculated (without preincubation of inhibitor and enzyme) as the concentration of inhibitor that reduced cathepsin B activity by 50%.
For determination of K1 and kinact/K1 kinetic inhibition constants, kobs constants were determined by plots of cathepsin B activity in time courses with different inhibitor concentrations by curve fitting slope data of RFU versus time into Y=Y0*e^(−kobs*^X), where Y0 is the activity for the control with no inhibitor condition, Y is the activity in the presence of inhibitor, X is time. K1 and kinact values were calculated from curve fitting the kobs values into the equation kobs=kinact*[I]/(K1+[I]), where [I] is inhibitor concentration, and K1 is the x-axis inhibitor concentration where y=kinact/2 and kinact is the maximum rate of inactivation at saturating inhibitor concentrations (93, 94). These kinetic analyses are for irreversible inhibitors, Z-Arg-Lys-AOMK and Z-Glu-Lys-AOMK of this study, that utilize Ki values, rather than Ki values used for reversible inhibitors (93).

[2] = target: T2, cathepsin C (Homo sapiens, UniProt P53634); test: Specificity of inhibitors: cathepsin C (Gly-Arg-AMC substrate); settings: pH 7.2, from IC50
T2 construct: purchased R&D Systems 1071-CY-010
T2 sequence (P53634 25-134 limits assumed): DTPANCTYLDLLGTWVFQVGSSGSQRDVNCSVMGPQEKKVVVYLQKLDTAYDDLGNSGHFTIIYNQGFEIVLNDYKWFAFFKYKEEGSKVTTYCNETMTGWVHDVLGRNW
T2 sequence (P53634 231-394 limits assumed): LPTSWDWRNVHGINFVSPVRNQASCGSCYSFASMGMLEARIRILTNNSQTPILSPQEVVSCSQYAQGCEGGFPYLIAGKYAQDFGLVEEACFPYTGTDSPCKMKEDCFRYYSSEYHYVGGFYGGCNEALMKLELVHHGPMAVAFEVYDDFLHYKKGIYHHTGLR
T2 sequence (P53634 395-463 limits assumed): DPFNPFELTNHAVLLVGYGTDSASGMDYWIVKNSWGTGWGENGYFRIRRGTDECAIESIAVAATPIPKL
Description: (§1) Specificity of inhibitors for other cysteine cathepsin proteases. The effects of Z-Arg-Lys-AOMK and Z-Glu-Lys-AOMK on cathepsin V, L, K, S, X, H and C activities were assessed. IC50 values were calculated at pH 4.6 and pH 7.2 conditions, consisting of 40 mM citrate phosphate, 1 mM EDTA, 100 mM NaCl, and 5 mM DTT. The inhibitor concentrations ranged from 16.38 μM to 256 nM with 2-fold serial dilutions. […] Cathepsin V (0.04 ng/μL), cathepsin L (0.03 ng/μL), cathepsin K (0.10 ng/μL), cathepsin S (0.20 ng/uL) were assayed with 40 μM Z-Phe-Arg-AMC. Cathepsin X (0.20 ng/uL), cathepsin C (0.51 ng/uL) and cathepsin H (0.1 ng/μL) were assayed with 40 μM of MCA-Arg-Pro-Pro-Gly-Phe-Ser-Ala-Phe-Lys(Dnp)OH (SEQ ID NO: 2), Gly-Arg-AMC, and Arg-AMC, respectively. Activation of pro-cathepsin H to cathepsin H was conducted by incubation of cathepsin H (4.4 ng/μL) with cathepsin L (1.1 ng/μL) at RT for 2 hrs in activation buffer (20 mM citrate phosphate pH 6.0, 100 mM NaCl, and 5 mM DTT). Cathepsin C (13.78 ng/μL) was activated by incubation with cathepsin L (3.4 ng/μL) at RT for one hr in activation buffer (20 mM citrate phosphate, pH 6.0, 100 mM NaCl, 5 mM DTT). […] For all assays containing peptide-AMC substrates the fluorescent microplate reader settings were the same as outlined above for cathepsin B. For the cathepsin X assay, the plate reader was set to excitation 320 nm, emission 400 nm, gain 105, top optics and read height 1 mm. To convert RFU/s to picomol/min, 10 μM to 0.005 μM (2-fold serial dilution) of MCA-Arg-Pro-Pro-Gly-Phe-Ser-Ala-Phe-Lys(Dnp)OH (SEQ ID NO: 2) was fully hydrolyzed with excess cathepsin X and a standard curve was generated using the total fluorescence values calculated at each concentration.

[3] = target: T3, cathepsin H (Homo sapiens, UniProt P09668); test: Specificity of inhibitors: cathepsin H (Arg-AMC substrate); settings: cathepsin H
T3 construct: purchased R&D Systems 75116-CY-010
T3 sequence (P09668 116-335 limits assumed, other chains not shown): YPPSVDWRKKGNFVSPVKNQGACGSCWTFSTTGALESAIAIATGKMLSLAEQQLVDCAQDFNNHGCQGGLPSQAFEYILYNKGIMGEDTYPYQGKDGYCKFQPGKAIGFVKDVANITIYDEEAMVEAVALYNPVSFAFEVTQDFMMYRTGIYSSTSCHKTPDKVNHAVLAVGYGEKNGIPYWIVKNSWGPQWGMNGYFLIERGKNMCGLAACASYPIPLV
Description: as §1

[4] = target: T4, cathepsin K (Homo sapiens, UniProt P43235); test: Specificity of inhibitors: cathepsin K (Z-Phe-Arg-AMC substrate); settings: cathepsin K
T4 construct: purchased Abcam ab157067
T4 sequence (P43235 115-329): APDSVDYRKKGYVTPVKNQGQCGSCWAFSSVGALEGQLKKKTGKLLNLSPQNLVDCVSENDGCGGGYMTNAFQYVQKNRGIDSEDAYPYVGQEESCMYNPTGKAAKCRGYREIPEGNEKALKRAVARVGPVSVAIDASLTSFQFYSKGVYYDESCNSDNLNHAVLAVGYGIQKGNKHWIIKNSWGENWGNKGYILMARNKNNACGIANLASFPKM
Description: as §1

[5] = target: T5, cathepsin L (Homo sapiens, UniProt P07711); test: Specificity of inhibitors: cathepsin L (Z-Phe-Arg-AMC substrate); settings: cathepsin L
T5 construct: purchased R&D Systems 952-CY-010
T5 sequence (P07711 114-333): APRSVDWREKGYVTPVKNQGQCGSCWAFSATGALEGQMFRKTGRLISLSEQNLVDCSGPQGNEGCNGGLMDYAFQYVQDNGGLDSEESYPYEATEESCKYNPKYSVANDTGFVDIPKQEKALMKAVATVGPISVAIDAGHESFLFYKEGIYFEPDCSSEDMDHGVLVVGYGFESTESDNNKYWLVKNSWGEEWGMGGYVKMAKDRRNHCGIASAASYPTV
Description: as §1

[6] = target: T6, cathepsin S (Homo sapiens, UniProt P25774); test: Specificity of inhibitors: cathepsin S (Z-Phe-Arg-AMC substrate); settings: cathepsin S
T6 construct: purchased R&D Systems 1183-CY-010
T6 sequence (P25774 115-331): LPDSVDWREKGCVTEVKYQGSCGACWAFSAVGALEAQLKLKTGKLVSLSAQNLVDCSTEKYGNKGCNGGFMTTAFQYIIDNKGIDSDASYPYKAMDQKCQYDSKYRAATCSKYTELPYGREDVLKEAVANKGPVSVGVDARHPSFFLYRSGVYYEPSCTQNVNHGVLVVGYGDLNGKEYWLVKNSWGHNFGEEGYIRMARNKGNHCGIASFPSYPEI
Description: as §1

[7] = target: T7, cathepsin V (Homo sapiens, UniProt O60911); test: Specificity of inhibitors: cathepsin V (Z-Phe-Arg-AMC substrate); settings: cathepsin V
T7 construct: purchased R&D Systems 1080-CY-010
T7 sequence (O60911 114-334): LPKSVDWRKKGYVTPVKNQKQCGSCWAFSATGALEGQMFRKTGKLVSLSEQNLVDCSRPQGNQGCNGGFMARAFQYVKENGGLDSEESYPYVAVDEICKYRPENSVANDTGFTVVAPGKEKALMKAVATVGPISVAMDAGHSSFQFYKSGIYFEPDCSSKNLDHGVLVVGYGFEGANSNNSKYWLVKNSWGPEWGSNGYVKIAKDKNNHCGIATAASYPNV
Description: as §1

[8] = target: cathepsin X (Homo sapiens, UniProt Q9UBR2); test: Specificity of inhibitors: cathepsin X (MCA peptide substrate); settings: cathepsin X, pH 4.6
Chain of cathepsin X (Q9UBR2 62-303): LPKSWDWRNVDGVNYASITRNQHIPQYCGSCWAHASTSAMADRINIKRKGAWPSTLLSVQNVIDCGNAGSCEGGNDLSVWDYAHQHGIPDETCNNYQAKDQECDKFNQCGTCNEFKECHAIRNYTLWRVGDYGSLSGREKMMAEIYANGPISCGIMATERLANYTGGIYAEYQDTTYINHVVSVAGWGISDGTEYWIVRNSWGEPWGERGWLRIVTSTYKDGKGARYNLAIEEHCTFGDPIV
Description: as §1

[9] = target: T1, cathepsin B; test: Irreversible mechanism of inhibitors (pre-incubation, dilution, activity); settings: pH 4.6
Description: Irreversible mechanism of inhibitors. The irreversible or reversible mechanism of cathepsin B inhibition was assessed for Z-Arg-Lys-AOMK and Z-Glu-Lys-AOMK inhibitors. At pH 7.2, cathepsin B was incubated with 190 nM Z-Arg-Lys-AOMK and 4.99 μM Z-Glu-Lys-AOMK for 15 min in pH 7.2 assay buffer and the assay was performed as described above for pH 4.6. Proteolytic activity was monitored for 2 hr. At pH 4.6, cathepsin B (activated, 3.7 ng/μL) was incubated with 4.24 μM Z-Arg-Lys-AOMK and 3.48 μM Z-Glu-Lys-AOMK for 15 min in 40 mM citrate phosphate pH 4.6, 1 mM EDTA, 100 mM NaCl, and 5 mM DTT; a vehicle control contained 2.5% DMSO. Each reaction was then diluted 100-fold in assay buffer such that the final assay composition was 0.04 ng/μL cathepsin B, 40 μM Z-Phe-Arg-AMC, and an inhibitor concentration of 1/10th the IC50 value.

[10] = target: T8, cathepsin B in SHSY5Y human neuroblastoma cell homogenate (Homo sapiens, UniProt P07858); test: Cathepsin B activity in neuroblastoma cell homogenates in presence of inhibitors; settings: inhibitor 1 μM, Z-Arg-Arg-AMC substrate, pH 5.5
T8 construct: endogenous in cells; host or cells: SH-SY5Y human neuroblastoma cells
Description: Cathepsin B in human neuroblastoma cells treated with inhibitors. Neuroblastoma cells (human SHSY5Y) were grown in media consisting of 50% MEMalpha, 50% F12-K, 10% heat-inactivated FBS at 37° C. in an atmosphere of 95% air and 5% CO2. Firstly, cell homogenates were prepared by collection of cells in 0.32 M sucrose and freeze-thawing. Secondly, cells were incubated with Z-Arg-Lys-AOMK or CA-074Me for 6 hours at 37° C., and washed 3 times in phosphate-buffered saline and homogenates were prepared in 0.32 M sucrose with freeze-thawing. CA-074Me is a methyl ester form of the active CA-074 selective inhibitor of cathepsin B (70); CA-074Me penetrates the cell and is converted by intracellular esterases to CA-074.
Cathepsin B activity in the homogenates were monitored with Z-Arg-Arg-AMC substrate (60 μM) with buffer conditions of 40 mM citrate-phosphate, pH 5.5, 5 mM DTT, 1 mM EDTA, 100 mM NaCl, and 1.2% DMSO, followed by incubation at 37° C. for 30 minutes and reading of AMC fluorescence. CA-074-senstive activity was monitored to indicate cathepsin B activity, since CA-074 is a selective inhibitor of this enzyme (70). Protein content was measured in homogenates with the DC protein assay kit. Cathepsin B specific activity was calculated as nmol AMC/μg/min, and reported as the mean±SD (with analyses for statistical significance, p<0.05 by student's t-test).

Cc1cccc(C)c1C(=O)OCC(=O)C(CCCCN)NC(=O)C(CCC(=O)O)NC(=O)OCc1ccccc1 (stereo not drawn) [Z-Glu-Lys-AOMK] was tested, and the kinact/KI ([1]; pH 4.6) was 2000 M⁻¹ s⁻¹, the Ki ([1]; pH 4.6, irreversible inhibitor) was 7.9 µM and the IC50 ([1]; pH 4.6, without preincubation) was 1.1 µM. For the same compound, the kinact/KI ([1]; pH 7.2) was 8200 M⁻¹ s⁻¹, the Ki ([1]; pH 7.2, irreversible inhibitor) was 2.3 µM and the IC50 ([1]; pH 7.2, without preincubation) was 0.32 µM. The “fold more potent for cathepsin B than cathepsin C” value [2] was 38 fold, the IC50 ([3]; pH 4.6) was greater than 16 µM and the IC50 ([3]; pH 7.2) was greater than 16 µM. The IC50 ([4]; pH 4.6) was greater than 16 µM, the inhibition at 16 µM ([4]; pH 4.6, 16,000 nM inhibitor) was 10% and the IC50 ([4]; pH 7.2) was greater than 16 µM. For the same compound, the IC50 ([5]; pH 4.6) was greater than 16 µM, the inhibition at 16 µM ([5]; pH 4.6, 16,000 nM inhibitor) was 23% and the IC50 ([6]; pH 4.6) was greater than 16 µM. It also gave an inhibition at 16 µM ([6]; pH 4.6, 16,000 nM inhibitor) of 26%, an IC50 ([6]; pH 7.2) greater than 16 µM and an inhibition at 16 µM ([6]; pH 7.2, 16,000 nM inhibitor) of 30%. It also gave an IC50 ([7]; pH 7.2) greater than 16 µM, an inhibition at 16 µM ([7]; pH 7.2, 16,000 nM inhibitor) of 10% and an IC50 [8] greater than 16 µM. For the same compound, the “cathepsin B activity after pre-incubation and dilution of inhibitor” value [9] was “no cathepsin B activity”.
CCCNC(=O)[C@H]1O[C@@H]1C(=O)N[C@H](C(=O)N1CCC[C@H]1C(=O)O)[C@@H](C)CC [CA-074, reference compound] was tested, and the “inhibition of proteolytic (cathepsin B) activity in cell lysate” value [10] was “completely inhibited”.
